According to patent US5137811A, “Method for diagnosing periodontal diseases with a substrate specific for aminopeptidase activity of periodontopathic bacteria” (Sunstar Kabushiki Kaisha, priority 1986, dated 1992):
Where a SMILES comes first, the peptide text is derived from it. The star is where a group is joined. βNA = c1ccc2cc(N*)ccc2c1; Cbz = O=C(OCc1ccccc1)*; Bz = O=C(c1ccccc1)*

What was measured:
Bacteroides gingivalis = test: Hydrolytic activity of oral anaerobe cell suspension on aminopeptidase substrates (Experiment 1); assay type: cell-based; settings: five strains, substrate 0.2 mM, pH 7.0, 37° C., 60 minutes, Table 1
Experimental: (§1) Oral anaerobes, i.e., four strains of Treponema denticola, five strains of B. gingivalis, four strains of Actinobacillus actinomycetemcomitans, four strains of Capnocytophaga sp. and three strains of Fusobacterium nucleatum were tested for hydrolytic activity to the substrate of aminopeptidase enzyme as follows.
(§2) The strains of Treponema were anaerobically cultivated using TYGVS media at 37° C. for 7 days, while other bacterial strains were cultivated using brain heart infusion broth at 37° C. for 48 to 72 hours. Each culture was diluted to obtain a bacterial cell suspension, the absorption at 660 nm of which was 1.0.
(§3) Substrate compounds for aminopeptidase enzyme having various color developing groups derived from β-naphthylamine were dissolved in 0.1M Tris-HCl buffer (pH 7.0) at the concentration of 0.2 mM to obtain substrate solutions.
(§4) To the substrate solution (1.5 ml) was added the above cell suspension (0.3 ml) and reacted at 37° C. for 60 minutes. After completion of the reaction, a coloring reagent [prepared by dissolving diazonium salt of Garnet GBC in 1M acetate buffer (containing 10% Tween 20, pH: 4.2) at the concentration of 0.5 mg/ml] was added and, after 15 minutes, the absorption at 525 nm was determined with a spectrophotometer.
(§5) On the basis of the average amount of released β-naphthylamine in each strain, the hydrolytic activity was expressed as follows: […]

Capnocytophaga sp. = test: as above; assay type: cell-based; settings: four strains, substrate 0.2 mM, pH 7.0, 37° C., 60 minutes, Table 1
Experimental: as §1, §2, §3, §4, §5

Treponema denticola = test: as above; assay type: cell-based; settings: four strains, substrate 0.2 mM, pH 7.0, 37° C., 60 minutes, Table 1
Experimental: as §1, §2, §3, §4, §5

Fusobacterium nucleatum = test: as above; assay type: cell-based; settings: three strains, substrate 0.2 mM, pH 7.0, 37° C., 60 minutes, Table 1
Experimental: as §1, §2, §3, §4, §5

[1] = test system: Actinobacillus actinomycetemcomitans; test: as above; assay type: cell-based; settings: four strains, substrate 0.2 mM, pH 7.0, 37° C., 60 minutes, Table 1
Experimental: as §1, §2, §3, §4, §5

[2] = test system: periodontopathic bacteria specific aminopeptidase activity; test: Hydrolytic activity of gingival crevicular fluid specimens, visually evaluated (Experiment 4); assay type: biochemical; design: key: -: orange; +: dark orange; ++: brown; +++: dark brown
Experimental: as §3, §4
Specimens of gingival crevicular fluid were collected with paper points from five subjects who were considered to be healthy from their clinical state, six subjects with gingivitis and six subjects with periodontitis. Each specimen was dispersed in Ringer's solution (1.5 ml), and the relative amount of spirochete to total bacteria: [formula] was determined with a phase contrast microscope. Further, the Ringer's solution (0.3 ml) was tested for hydrolytic activity using the substrate solution prepared in the same manner as described in Experiment 1. As substrates, there were used compounds of the formula [1], i.e., N-benzoylvalyl-glycyl-arginine-β-naphthylamide (BzVGR) and N-carbobenzoxy-valyl-glycyl-arginine-β-naphthylamide (CxVGR) were used.
In table 4, hydrolytic activity was visually evaluated and expressed as follows: […]

| SMILES | hydrolytic activity (average amount of released β-naphthylamine) (Bacteroides gingivalis) | hydrolytic activity (average amount of released β-naphthylamine) (Capnocytophaga sp.) | hydrolytic activity (average amount of released β-naphthylamine) (Treponema denticola) | hydrolytic activity (average amount of released β-naphthylamine) (Fusobacterium nucleatum) | hydrolytic activity (average amount of released β-naphthylamine) [1] | also measured |
| --- | --- | --- | --- | --- | --- | --- |
| N=C(N)NCCC[C@H](NC(=O)[C@@H](N)CCCCN)C(=O)Nc1ccc2ccccc2c1 [KR, lysyl-arginine-β-naphthylamide] (H-Lys-Arg-βNA) | ++ (20 ≤release amount<40 nmol/ml) | + (10 ≤release amount<20 nmol/ml) | + (10 ≤release amount<20 nmol/ml) | - (release amount<5 nmol/ml) | - (release amount<5 nmol/ml) |  |
| N=C(N)NCCC[C@H](NC(=O)OCc1ccccc1)C(=O)N[C@@H](CCCNC(=N)N)C(=O)Nc1ccc2ccccc2c1 [CxRR, N-carbobenzoxy-arginyl-arginine-β-naphthylamide] (Cbz-Arg-Arg-βNA) | +++ (release amount≥40 nmol/ml) | - (release amount<5 nmol/ml) | + + | - (release amount<5 nmol/ml) | - (release amount<5 nmol/ml) |  |
| N=C(N)NCCC[C@H](NC(=O)[C@H](CCCCN)NC(=O)OCc1ccccc1)C(=O)Nc1ccc2ccccc2c1 [CxKR, N-carbobenzoxy-lysyl-arginine-β-naphthylamide] (Cbz-Lys-Arg-βNA) | ++ (20 ≤release amount<40 nmol/ml) | - (release amount<5 nmol/ml) | ++ (20 ≤release amount<40 nmol/ml) | - (release amount<5 nmol/ml) | - (release amount<5 nmol/ml) |  |
| NCC(=O)N[C@@H](Cc1ccccc1)C(=O)Nc1ccc2ccccc2c1 [GF, glycyl-phenylalanine-β-naphthylamide, reference compound] (H-Gly-Phe-βNA) | ++ (20 ≤release amount<40 nmol/ml) | ± (5 ≤release amount<10 nmol/ml) | - (release amount<5 nmol/ml) | - (release amount<5 nmol/ml) | - (release amount<5 nmol/ml) |  |
| N=C(N)NCCC[C@H](N)C(=O)NCC(=O)Nc1ccc2ccccc2c1 [RG, arginyl-glycine-β-naphthylamide, reference compound] (H-Arg-Gly-βNA) | ++ (20 ≤release amount<40 nmol/ml) | + (10 ≤release amount<20 nmol/ml) | - (release amount<5 nmol/ml) | - (release amount<5 nmol/ml) | - (release amount<5 nmol/ml) |  |
| N=C(N)NCCC[C@H](NC(=O)[C@@H](N)CCCNC(=N)N)C(=O)Nc1ccc2ccccc2c1 [RR, arginyl-arginine-β-naphthylamide] (H-Arg-Arg-βNA) | + (10 ≤release amount<20 nmol/ml) | + (10 ≤release amount<20 nmol/ml) | +++ (release amount≥40 nmol/ml) | - (release amount<5 nmol/ml) | - (release amount<5 nmol/ml) |  |
| N=C(N)NCCC[C@H](NC(=O)[C@H](Cc1ccccc1)NC(=O)[C@@H]1CCCN1)C(=O)Nc1ccc2ccccc2c1 [PFR, prolyl-phenylalanyl-arginine-β-naphthylamide] (H-Pro-Phe-Arg-βNA) | +++ (release amount≥40 nmol/ml) | - (release amount<5 nmol/ml) | +++ (release amount≥40 nmol/ml) | - (release amount<5 nmol/ml) | - (release amount<5 nmol/ml) |  |
| N=C(N)NCCC[C@H](NC(=O)[C@H](Cc1ccccc1)NC(=O)OCc1ccccc1)C(=O)Nc1ccc2ccccc2c1 [CxFR, N-carbobenzoxy-phenylalanyl-arginine-β-naphthylamide] (Cbz-Phe-Arg-βNA) | +++ (release amount≥40 nmol/ml) | - (release amount<5 nmol/ml) | +++ (release amount≥40 nmol/ml) | - (release amount<5 nmol/ml) | - (release amount<5 nmol/ml) |  |
| CC(C)[C@H](NC(=O)c1ccccc1)C(=O)NCC(=O)N[C@@H](CCCNC(=N)N)C(=O)Nc1ccc2ccccc2c1 [BzVGR, N-benzoyl-valyl-glycyl-arginine-β-naphthylamide] (Bz-Val-Gly-Arg-βNA) | +++ (release amount≥40 nmol/ml) | - (release amount<5 nmol/ml) | +++ (release amount≥40 nmol/ml) | - (release amount<5 nmol/ml) | - (release amount<5 nmol/ml) | hydrolytic activity, visually evaluated ([2]; Gingivitis subject 1 (spirochete 7.3 %)): +; hydrolytic activity, visually evaluated ([2]; Gingivitis subject 2 (spirochete 16.7 %)): +; hydrolytic activity, visually evaluated ([2]; Gingivitis subject 3 (spirochete 20.5 %)): ++; hydrolytic activity, visually evaluated ([2]; Gingivitis subject 4 (spirochete 6.8 %)): -; hydrolytic activity, visually evaluated ([2]; Gingivitis subject 5 (spirochete 7.3 %)): -; hydrolytic activity, visually evaluated ([2]; Gingivitis subject 6 (spirochete 14.4 %)): +; hydrolytic activity, visually evaluated ([2]; Healthy subject 1 (spirochete 0.1 %)): -; hydrolytic activity, visually evaluated ([2]; Healthy subject 2 (spirochete 2.5 %)): +; hydrolytic activity, visually evaluated ([2]; Healthy subject 3 (spirochete 1.1 %)): -; hydrolytic activity, visually evaluated ([2]; Healthy subject 4 (spirochete 0.6 %)): -; hydrolytic activity, visually evaluated ([2]; Healthy subject 5 (spirochete 1.3 %)): -; hydrolytic activity, visually evaluated ([2]; Periodontitis subject 1 (spirochete 45.2 %)): +++; hydrolytic activity, visually evaluated ([2]; Periodontitis subject 2 (spirochete 30.3 %)): +++; hydrolytic activity, visually evaluated ([2]; Periodontitis subject 3 (spirochete 34.6 %)): +++; hydrolytic activity, visually evaluated ([2]; Periodontitis subject 4 (spirochete 21.2 %)): +++; hydrolytic activity, visually evaluated ([2]; Periodontitis subject 5 (spirochete 40.3 %)): +++; hydrolytic activity, visually evaluated ([2]; Periodontitis subject 6 (spirochete 35.1 %)): +++ |
| N=C(N)NCCC[C@H](NC(=O)[C@@H](N)Cc1ccccc1)C(=O)Nc1ccc2ccccc2c1 [FR, phenylalanyl-arginine-β-naphthylamide] (H-Phe-Arg-βNA) | + (10 ≤release amount<20 nmol/ml) | ± (5 ≤release amount<10 nmol/ml) | + (10 ≤release amount<20 nmol/ml) | - (release amount<5 nmol/ml) | - (release amount<5 nmol/ml) |  |
| NCCCC[C@H](NC(=O)CN)C(=O)Nc1ccc2ccccc2c1 [GK, glycyl-lysine-β-naphthylamide, reference compound] (H-Gly-Lys-βNA) | + (10 ≤release amount<20 nmol/ml) | + (10 ≤release amount<20 nmol/ml) | - (release amount<5 nmol/ml) | - (release amount<5 nmol/ml) | - (release amount<5 nmol/ml) |  |
